Laboratory results: patent US9695155B2, “Herbicidal substituted pyrimidinyloxy benzene compounds” (E. I. DU PONT DE NEMOURS AND COMPANY, priority 2013, dated 2017)

Experiments:
Test in all cases: Test F preemergence
Details in all cases: 21 days, scale 0 to 100
leafy spurge = assay type: in vivo, Euphorbia esula
Text: (§1) Seeds of plant species selected from bermudagrass (Cynodon dactylon), surinam grass (Brachiaria decumbens), large (Lg) crabgrass (Digitaria sanguinalis), crabgrass, naked (naked crabgrass, Digitaria nuda), foxtail, green (green foxtail, Setaria viridis), johnsongrass (Sorghum halepense), kochia (Kochia scoparia), morningglory (pitted morningglory, Ipomoea lacunosa), nutsedge, purple (purple nutsedge, Cyperus rotundus), ragweed (common ragweed, Ambrosia elatior), mustard, black (black mustard, Brassica nigra), guineagrass (Panicum maximum), dallisgrass (Paspalum dilatatum), barnyardgrass (Echinochloa crus-galli), sandbur (southern sandbur, Cenchrus echinatus), sowthistle (common sowthistle, Sonchus oleraceous), Italian ryegrass (Lolium multiflorum), signalgrass (broadleaf signalgrass, Brachiaria platyphylla), dayflower (Virginia (VA) dayflower, Commelina virginica), bluegrass (annual bluegrass, Poa annua), quackgrass (Elytrigia repens), mallow (common mallow, Malva sylvestris), buckwheat, wild (wild buckwheat, Polygonum convolvulus), leafy spurge (Euphorbia esula), chickweed (common chickweed, Stellaria media), wild poinsettia (Euphorbia heterophylla), and pigweed (Amaranthus retroflexus) were planted into a blend of loam soil and sand and treated preemergence with test chemicals formulated in a non-phytotoxic solvent mixture which included a surfactant.
(§2) Treated plants and controls were maintained in a greenhouse for 21 days, after which time all species were compared to controls and visually evaluated. Plant response ratings, summarized in Table F, are based on a scale of 0 to 100 where 0 is no effect and 100 is complete control. A dash (-) response means no test result.

ragweed = assay type: in vivo, Ambrosia elatior
Text: as §1, §2

dayflower = assay type: in vivo, Commelina virginica
Text: as §1, §2

nutsedge, purple = assay type: in vivo, Cyperus rotundus
Text: as §1, §2

wild poinsettia = assay type: in vivo, Euphorbia heterophylla
Text: as §1, §2

chickweed = assay type: in vivo, Stellaria media
Text: as §1, §2

Italian ryegrass = assay type: in vivo, Lolium multiflorum
Text: as §1, §2

Row | SMILES | Plant response rating, Leafy Spurge (leafy spurge; 16 g ai/ha) | Plant response rating, Leafy Spurge (leafy spurge; 31 g ai/ha) | Plant response rating, Leafy Spurge (leafy spurge; 62 g ai/ha) | Plant response rating, Leafy Spurge (leafy spurge; 125 g ai/ha) | Plant response rating, Leafy Spurge (leafy spurge; 250 g ai/ha) | Plant response rating, Ragweed (ragweed; 16 g ai/ha) | Plant response rating, Ragweed (ragweed; 31 g ai/ha) | Plant response rating, Ragweed (ragweed; 62 g ai/ha) | Plant response rating, Ragweed (ragweed; 125 g ai/ha) | Plant response rating, Ragweed (ragweed; 250 g ai/ha) | Plant response rating, Dayflower, VA (dayflower; 16 g ai/ha) | Plant response rating, Dayflower, VA (dayflower; 31 g ai/ha) | Plant response rating, Dayflower, VA (dayflower; 62 g ai/ha) | Plant response rating, Dayflower, VA (dayflower; 125 g ai/ha) | Plant response rating, Dayflower, VA (dayflower; 250 g ai/ha) | Plant response rating, Nutsedge, Purple (nutsedge, purple; 16 g ai/ha) | Plant response rating, Nutsedge, Purple (nutsedge, purple; 31 g ai/ha) | Plant response rating, Nutsedge, Purple (nutsedge, purple; 62 g ai/ha) | Plant response rating, Nutsedge, Purple (nutsedge, purple; 125 g ai/ha) | Plant response rating, Nutsedge, Purple (nutsedge, purple; 250 g ai/ha) | other results
1 | N#Cc1cccc(Oc2ncc(Cl)cn2)c1-n1cc(OC(F)F)cn1 [Compound 97] | 98 | 98 | 100 | 100 | 100 | 10 | 75 | 85 | 95 | 100 | 35 | 80 | 98 | 98 | 100 | 15 | 35 | 30 | 75 | 90 | Plant response rating, Poinsettia, Wild (wild poinsettia; 16 g ai/ha): 10; Plant response rating, Poinsettia, Wild (wild poinsettia; 31 g ai/ha): 20; Plant response rating, Poinsettia, Wild (wild poinsettia; 62 g ai/ha): 75; Plant response rating, Poinsettia, Wild (wild poinsettia; 125 g ai/ha): 98; Plant response rating, Poinsettia, Wild (wild poinsettia; 250 g ai/ha): 98; Plant response rating, Chickweed (chickweed; 16 g ai/ha): 100; Plant response rating, Chickweed (chickweed; 31 g ai/ha): 100; Plant response rating, Chickweed (chickweed; 62 g ai/ha): 100; Plant response rating, Chickweed (chickweed; 125 g ai/ha): 100; Plant response rating, Chickweed (chickweed; 250 g ai/ha): 100; Plant response rating, Ryegrass, Italian (Italian ryegrass; 16 g ai/ha): 0; Plant response rating, Ryegrass, Italian (Italian ryegrass; 31 g ai/ha): 35; Plant response rating, Ryegrass, Italian (Italian ryegrass; 62 g ai/ha): 70; Plant response rating, Ryegrass, Italian (Italian ryegrass; 125 g ai/ha): 85; Plant response rating, Ryegrass, Italian (Italian ryegrass; 250 g ai/ha): 100
2 | N#Cc1cccc(Oc2ncc(F)cn2)c1-n1cc(C(F)(F)F)cn1 [Compound 79, 3-[(5-fluoro-2-pyrimidinyl)oxy]-2-[4-(trifluoromethyl)-1H-pyrazol-1-yl]benzonitrile] | 95 | 98 | 100 | 100 | 100 | 25 | 70 | 98 | 100 | 100 | 95 | 98 | 100 | 100 | 100 | 0 | 10 | 70 | 70 | 85 | Plant response rating, Poinsettia, Wild (wild poinsettia; 16 g ai/ha): 50; Plant response rating, Poinsettia, Wild (wild poinsettia; 31 g ai/ha): 85; Plant response rating, Poinsettia, Wild (wild poinsettia; 62 g ai/ha): 98; Plant response rating, Poinsettia, Wild (wild poinsettia; 125 g ai/ha): 100; Plant response rating, Poinsettia, Wild (wild poinsettia; 250 g ai/ha): 100; Plant response rating, Chickweed (chickweed; 16 g ai/ha): 98; Plant response rating, Chickweed (chickweed; 31 g ai/ha): 100; Plant response rating, Chickweed (chickweed; 62 g ai/ha): 100; Plant response rating, Chickweed (chickweed; 125 g ai/ha): 100; Plant response rating, Chickweed (chickweed; 250 g ai/ha): 100; Plant response rating, Ryegrass, Italian (Italian ryegrass; 16 g ai/ha): 30; Plant response rating, Ryegrass, Italian (Italian ryegrass; 31 g ai/ha): 75; Plant response rating, Ryegrass, Italian (Italian ryegrass; 62 g ai/ha): 98; Plant response rating, Ryegrass, Italian (Italian ryegrass; 125 g ai/ha): 100; Plant response rating, Ryegrass, Italian (Italian ryegrass; 250 g ai/ha): 100
